According to patent US9757462B2, “Combined pharmaceutical preparation” (Sapporo Medical University, priority 2010, dated 2017):

Assays:
PANC-1 = experiment: 14C-fucose binding to cells; details: 14C-fucose 0-200 nM, 4° C., 1 hr
Protocol: (§1) In a 12-well culture plate, 1×10^5 cells were seeded and cultured overnight, and ^14C-fucose (specific activity: 55 mCi/mmol) diluted with BSA-PBS at a concentration of 0-200 nM was added to the cells and cultured at 4° C. for 1 hr. The cells were washed with cold BSA-PBS, lysed by 1% Triton X100/PBS-0.25% trypsin, and the radioactivity of the ^14C-fucose bound to the cell membrane was measured (FIGS. 2 and 3).

AsPC-1 = experiment: 14C-fucose binding to cells
Protocol: as §1
In another experiment, in a 12-well culture plate, 2×10^5 cells were seeded and cultured overnight, 10 nmol of ^14C-fucose (specific activity: 55 mCi/mmol) were added to the cells either singly or together with 1 pmol of fucose, and cultured at 4° C. for 1, 3, or 24 hr. The cells under each condition were washed with cold BSA-PBS, lysed by 1% Triton X100/PBS-0.25% trypsin, and the radioactivity of the ^14C-fucose was measured (FIG. 4).

[1] = Hematologic/biochemical analyses and adverse effects during the treatment period; type: in vivo, mouse
Protocol: In the preparation of subcutaneous model, AsPC-1 cells (2×10^6 cells) were seeded on the back side of a mouse (4-6 weeks old). Bioluminescence was measured from 0 to 4 days after injection, and the mice were randomly divided into multiple groups before starting the treatment. In vivo optical imaging was performed using Xenogen-IVIS-cooled […] optical system (Xenogen-IVIS). Bound CDD (such as CDDP in fucosylated liposomes) or free CDDP was in a dose of 2 mg/kg for each administration. Injection was performed twice in the first week, then twice in the second and third weeks. All the mice used […], sacrificed on the next day of the final injection prior to the final measurement of bioluminescence.
Samples were collected from mouse orbital venous plexus. In the table, WBC represents white blood cell count, RBC represents red blood cell, count, Hb represents hemoglobin concentration, PLT represents Platelet count, AST represents aspartate aminotransferase concentration, […], Bil represents bilirubin concentration, BS represents blood glucose, Cr represents creatinine concentration.
In pancreatic cancer model mice (AsPC-1), effects of suppression of tumor growth by CDDP, CDDP-encapsulated liposomes (F0), and CDDP-encapsulated liposomes (F50) were compared (FIG. 20). […] Tumor volumes were measured at 4, 8, 11, 15, 18 and 22 days after the transplant.

AsPC-1 cells = experiment: Impact of excessive mannose on transfection efficiency of fucosylated liposomes (flow cytometry); type: cell-based; details: excessive amount of mannose
Protocol: Mannose is phosphorylated to mannose-6-phosphate by hexokinase, then converted to fructose-6 phosphate that is used in the glycolysis. However, 90% of the mannose taken into the body is excreted unchanged into urine within 30-60 min, and 99% of the remaining mannose is excreted within 8 hr.

[2] = cited from earlier work

With `C[C@H](O)[C@@H](O)[C@@H](O)[C@H](O)C=O` [fucose, L-fucose] the “binding of fucose to cells” value (PANC-1) was “binds to AsPC-1 and PANC-1 via a receptor-like mechanism”, the “binding of 14C-fucose in competition with non-labeled fucose” value (AsPC-1; 4° C. for 1, 3, or 24 hr) was “inhibited by non-labeled fucose” and the “binding of fucose to cells” value (AsPC-1; 14C-fucose 0-200 nM, 4° C., 1 hr) was “binds to AsPC-1 and PANC-1 via a receptor-like mechanism”. For the same molecule, the “affinity of fucose binding” value (AsPC-1; AsPC-1 compared with PANC-1) was “affinity is higher in the fucosylated sugar chain high-producing cell line AsPC-1”.

For `O=C[C@@H](O)[C@@H](O)[C@H](O)[C@H](O)CO` [mannose, D-mannose], the adverse effect ([1]; 1 mg of mannose for a mouse) was “no apparent adverse effect was observed”, the “adverse effects (as shown in Table 5)” value ([1]; treatment period) was “does not have any adverse effects” and the “impact on the transfection efficiency of fucosylated liposomes” value (AsPC-1 cells) was “no apparent impact was observed”. The “mannose taken into the body excreted unchanged into urine” value ([2]; within 30-60 min) was 90% and the remaining mannose excreted ([2]; within 8 hr) was 99%.
